Experimental findings from patent US9133187B2, “Serine/threonine kinase inhibitors” (ARRAY BIOPHARMA INC., priority 2011, dated 2015) are described below.

Each structure is given as a SMILES string.

Assay [1] concerns PMA-stimulated P90RSK(Ser380) phosphorylation in HepG2 cells. Nature of the assay: Cellular P90RSK(Ser380) Phosphorylation Assay. The following applies: Homo sapiens, 1.5 h compound incubation, PMA stimulation, pP90RSK(Ser380) normalized to GAPDH, read-out: Cell Assay IC50. The assay is classed as cell-based. As to the method:
Inhibition of PMA-stimulated P90RSK(Ser380) phosphorylation was determined by the following in vitro cellular mechanistic assay, which comprises incubating cells with a compound for 1.5 hours and quantifying fluorescent pP90RSK(Ser380) signal on fixed cells and normalizing to GAPDH signal.
Materials and Methods: HepG2 cells were obtained from ATCC and grown in DMEM supplemented with 10% fetal bovine serum. Cells were plated in 96-well plates at 35,000 cells/well and allowed to attach overnight at 37° C./5% CO2. Diluted compounds were then added at a final concentration of 0.5% DMSO. After 1.5 hour compound incubation, cells were stimulated with the addition of PMA (phorbol 12-myristate 13-acetate) at a final concentration of 100 ng/mL; the PMA stimulation was a 30-minute incubation at 37° C./5% CO2. After the 30-minute PMA stimulation, cells were washed with PBS and fixed in 3.7% formaldehyde in PBS at room temperature for 15-20 minutes. This was followed by another wash in PBS and then permeabilization in 100% MeOH at room temperature for 10-15 minutes. Following the permeabilization incubation, cells were washed in PBS/0.05% Tween-20, followed by a block in Odyssey blocking buffer (LI-COR Biosciences) for at least 1 hour. Antibodies to phosphorylated P90RSK(Ser380) (Cell Signaling #9335, rabbit monoclonal) and GAPDH (Fitzgerald 10R-G109a, mouse monoclonal) were added to the cells and incubated overnight at 4° C. pP90RSK(Ser380) antibody was used at a 1:250 dilution; GAPDH was used at a 1:10,000 dilution. After washing with PBS/0.05% Tween-20, the cells were incubated with fluorescently-labeled secondary antibodies (Anti-rabbit-Alexa Flour680, Invitrogen Cat#A21109; Anti-mouse-IRDye800CW, Rockland Inc. Cat#610-131-121) for 1 hour. Both secondary antibodies were used at a 1:1000 dilution. Cells were then washed and analyzed for fluorescence at both wavelengths using the Odyssey Infrared Imaging System (LI-COR Biosciences). Phosphorylated P90RSK(Ser380) signal was normalized to GAPDH signal. Representative date is in TABLE III (infra).

The target of assay [2] is human ERK-2 (Mitogen Activated Kinase 1) (Homo sapiens (Human), UniProt P28482). Nature of the assay: ERK-2 Enzymatic Assay. The assay is classed as biochemical. The conditions noted are these: 5 nM ERK-2, 25 μM ATP, Omnia peptide S/T17; read-out: ERK Inhibition IC50. How it is done: Compounds were tested in an enzymatic assay using human ERK-2 (Mitogen Activated Kinase 1), recombinantly expressed as an n-terminal 6-His fusion protein in E. coli and corresponding to aa 8-360. The substrate used was the fluorescent Omnia peptide S/T17 (Invitrogen of Carlsbad, Calif.; Cat. KNZ1171C). Test compounds were diluted in DMSO in 3-fold serial dilutions at 100× final concentrations. […] The assay was run at ambient temperature in a white 384-well polypropylene plate (Nunc, Inc of Naperville, Ill.; Cat. 267462) collecting data every 50 seconds for approximately 30 minutes on an Envision plate reader (PerkinElmer, Inc. of Waltham, Mass.); Excitation 340 nm/Emission 495 nm. The data collected from each well was fit to a straight line and the resulting rates were used to calculate percent of control. Percent of control was plotted against compound concentration and IC50 values were determined using a four-parameter fit.
Sequence of human ERK-2 (Mitogen Activated Kinase 1) (P28482 8-360): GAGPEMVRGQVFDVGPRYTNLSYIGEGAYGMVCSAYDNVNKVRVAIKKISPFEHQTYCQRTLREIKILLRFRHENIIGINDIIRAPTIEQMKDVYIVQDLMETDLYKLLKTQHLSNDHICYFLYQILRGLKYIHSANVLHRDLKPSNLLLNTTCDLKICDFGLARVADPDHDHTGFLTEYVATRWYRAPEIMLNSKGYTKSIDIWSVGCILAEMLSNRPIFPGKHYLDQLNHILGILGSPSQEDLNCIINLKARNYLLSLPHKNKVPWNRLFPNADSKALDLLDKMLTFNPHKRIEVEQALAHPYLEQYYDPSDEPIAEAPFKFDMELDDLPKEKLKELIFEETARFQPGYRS

As to `O=C(N1CCc2cnc(NC3CCOCC3)nc2C1)N1CCC[C@H]1c1ccccc1` [Compound I-130, (S)-(2-phenylpyrrolidin-1-yl)(2-(tetrahydro-2H-pyran-4-ylamino)-5,6-dihydropyrido[3,4-d]pyrimidin-7(8H)-yl)methanone], the values for the half-maximal inhibitory concentration (IC50) in assay [1] and in assay [2] were 10000 nM and 123 nM, respectively.
On to `O=C(N1CCc2cnc(NC3CCOCC3)nc2C1)N1CCNCC1c1ccccc1` (stereo not drawn) [Compound I-141, (2-Phenylpiperazin-1-yl)(2-(tetrahydro-2H-pyran-4-ylamino)-5,6-dihydropyrido[3,4-d]pyrimidin-7(8H)-yl)methanone], for which the IC50 in assay [2] was 108 nM.
Consider `CC(C)Nc1ncc2c(n1)CN(C(=O)NCc1cc3ccccc3[nH]1)CC2` [II-195, 2-Isopropylamino-5,8-dihydro-6H-pyrido[3,4-d]pyrimidine-7-carboxylic acid (1H-indol-2-ylmethyl)-amide], for which the results for the IC50 in assay [1] and in assay [2] were 281 nM and 6.6 nM, respectively.
Take `C[C@@H](CO)Nc1ncc2c(n1)CN(C(=O)N[C@H](C)c1ccc(Cl)c(F)c1)CC2` [Compound I-21, N—((R)-1-(4-chloro-3-fluorophenyl)ethyl)-2-((S)-1-hydroxypropan-2-ylamino)-5,6-dihydropyrido[3,4-d]pyrimidine-7(8H)-carboxamide]: the concentration for half-maximal inhibition (IC50) is 55.2 nM in assay [1] and 1.6 nM in assay [2].
For `CC(CF)Nc1ncc2c(n1)CN(C(=O)N[C@H](CO)c1ccc(Cl)c(Cl)c1)CC2` (stereo partly drawn) [Compound I-60, N—((S)-1-(3,4-dichlorophenyl)-2-hydroxyethyl)-2-(1-fluoropropan-2-ylamino)-5,6-dihydropyrido[3,4-d]pyrimidine-7(8H)-carboxamide], in that order: 100 nM and 3.3 nM.
For `O=C(N[C@H](CO)c1ccc(F)c(Cl)c1)N1CCc2cnc(Nc3ccc(Cl)c(F)c3)nc2C1` [II-61, 2-(4-Chloro-3-fluoro-phenylamino)-5,8-dihydro-6H-pyrido[3,4-d]pyrimidine-7-carboxylic acid [(S)-1-(3-chloro-4-fluoro-phenyl)-2-hydroxy-ethyl]-amide], in that order: 21300 nM and 210 nM.
In the case of `CC(NC(=O)N1CCc2cnc(NC3CCOCC3)nc2C1)c1ccc2cc[nH]c2c1` (stereo not drawn) [Compound I-107, N-(1-(1H-indol-6-yl)ethyl)-2-(tetrahydro-2H-pyran-4-ylamino)-5,6-dihydropyrido[3,4-d]pyrimidine-7(8H)-carboxamide], the IC50 in assay [1] was 30 nM; in assay [2], 2.7 nM.
The like results for `O=C(NC(c1ccc(Cl)c(F)c1)c1nnco1)N1CCc2cnc(NC3CCOCC3)nc2C1` (stereo in doubt) [II-359, 2-(Tetrahydro-pyran-4-ylamino)-5,8-dihydro-6H-pyrido[3,4-d]pyrimidine-7-carboxylic acid [(R)-(4-chloro-3-fluoro-phenyl)-[1,3,4]oxadiazol-2-yl-methyl]-amide] were, in that order, 30 nM and 2.4 nM.
On to `Cn1cc(C(NC(=O)N2CCc3cnc(NC4CCOCC4)nc3C2)c2ccc(Cl)c(F)c2)cn1` (stereo not drawn) [Compound I-5, N-((4-chloro-3-fluorophenyl)(1-methyl-1H-pyrazol-4-yl)methyl)-2-(tetrahydro-2H-pyran-4-ylamino)-5,6-dihydropyrido[3,4-d]pyrimidine-7(8H)-carboxamide], for which the 50% inhibitory concentration (IC50) was found to be 47.3 nM in assay [1] and 1.4 nM in assay [2].
The like results for `O=C(NC(c1ccc(Cl)c(F)c1)c1nnco1)N1CCc2cnc(NC3CCOCC3)nc2C1` (stereo not drawn) [Compound I-9, N-((4-chloro-3-fluorophenyl)(1,3,4-oxadiazol-2-yl)methyl)-2-(tetrahydro-2H-pyran-4-ylamino)-5,6-dihydropyrido[3,4-d]pyrimidine-7(8H)-carboxamide] were, in that order, 71.7 nM and 2.4 nM.
For `CC(C)Nc1ncc2c(n1)CN(C(=O)N[C@H](CNc1ccncn1)c1ccc(F)c(Cl)c1)CC2` [II-51, 2-Isopropylamino-5,8-dihydro-6H-pyrido[3,4-d]pyrimidine-7-carboxylic acid [(S)-1-(3-chloro-4-fluoro-phenyl)-2-(pyrimidin-4-ylamino)-ethyl]-amide], in that order: 435 nM and 2.4 nM.
Consider `COCC(=O)OC[C@@H](NC(=O)N1CCc2cnc(NC3CCOCC3)nc2C1)c1ccc(F)c(Cl)c1` [Compound I-56, (S)-2-(3-chloro-4-fluorophenyl)-2-(2-(tetrahydro-2H-pyran-4-ylamino)-5,6,7,8-tetrahydropyrido[3,4-d]pyrimidine-7-carboxamido)ethyl 2-methoxyacetate], for which the 50% inhibitory concentration (IC50) worked out at 66.2 nM in assay [1] and 5.3 nM in assay [2].
In the case of `O=C(N[C@@H](c1ccc(Cl)c(F)c1)[C@@H]1CNCCO1)N1CCc2cnc(NC3CCOCC3)nc2C1` (mixture of isomers) [Compound I-144, N—((R)-(4-chloro-3-fluorophenyl)((R)-morpholin-2-yl)methyl)-2-(tetrahydro-2H-pyran-4-ylamino)-5,6-dihydropyrido[3,4-d]pyrimidine-7(8H)-carboxamide and N—((S)-(4-chloro-3-fluorophenyl)((S)-morpholin-2-yl)methyl)-2-(tetrahydro-2H-pyran-4-ylamino)-5,6-dihydropyrido[3,4-d]pyrimidine-7(8H)-carboxamide mixture], the values for the IC50 in assay [1] and in assay [2] were 91.3 nM and 2.3 nM, respectively.
With `O=C(N[C@H](CO)c1ccc(F)c(Cl)c1)N1CCc2cnc(N[C@H](CO)Cc3ccccc3)nc2C1` [II-17, 2-((S)-1-Hydroxymethyl-2-phenyl-ethylamino)-5,8-dihydro-6H-pyrido[3,4-d]pyrimidine-7-carboxylic acid [(S)-1-(3-chloro-4-fluoro-phenyl)-2-hydroxy-ethyl]-amide], in assay [1], the IC50 is 1100 nM.
With `O=C(NC1(c2ccc(Cl)cc2)CCNC1)N1CCc2cnc(Nc3ccc(F)cc3)nc2C1` (stereo not drawn) [II-64, 2-(4-Fluoro-phenylamino)-5,8-dihydro-6H-pyrido[3,4-d]pyrimidine-7-carboxylic acid [3-(4-chloro-phenyl)-pyrrolidin-3-yl]-amide], the IC50 in assay [1] amounted to 3100 nM; in assay [2] it was 38.3 nM.
On to `CC(C)Nc1ncc2c(n1)CN(C(=O)N[C@@H](c1ccc(C(F)(F)F)c(F)c1)c1cccc(=O)[nH]1)CC2` [II-99, 2-Isopropylamino-5,8-dihydro-6H-pyrido[3,4-d]pyrimidine-7-carboxylic acid [(S)-(3-fluoro-4-trifluoromethyl-phenyl)-(6-oxo-1,6-dihydro-pyridin-2-yl)-methyl]-amide], for which the half-maximal inhibitory concentration (IC50) in assay [1] is 5600 nM.
On the same count and under the same terms, the value for `CC1CC(Nc2ncc3c(n2)CN(C(=O)N[C@H](CO)c2ccc(Cl)c(F)c2)CC3)CCO1` (stereo partly drawn) [II-366] was 91 nM; that for `CC(C)OC[C@@H](NC(=O)N1CCc2cnc(N[C@H]3CC[C@H](O)C3)nc2C1)c1ccc(F)c(Cl)c1` [II-95, 2-((1S,3S)-3-Hydroxy-cyclopentylamino)-5,8-dihydro-6H-pyrido[3,4-d]pyrimidine-7-carboxylic acid [(S)-1-(3-chloro-4-fluoro-phenyl)-2-isopropoxy-ethyl]-amide] was 551 nM.
As to `O=C(N1CCc2cnc(NC3CCOCC3)nc2C1)N1CCCC1c1nccs1` (stereo not drawn) [Compound I-139, (2-(tetrahydro-2H-pyran-4-ylamino)-5,6-dihydropyrido[3,4-d]pyrimidin-7(8H)-yl)(2-(thiazol-2-yl)pyrrolidin-1-yl)methanone], the IC50 in assay [2] was 264 nM.
For the compound `CC(C)Nc1ncc2c(n1)CN(C(=O)NC[C@H](c1ccc(C(F)(F)F)c(F)c1)N1CCCC1)CC2` [II-102, 2-Isopropylamino-5,8-dihydro-6H-pyrido[3,4-d]pyrimidine-7-carboxylic acid [(S)-2-(3-fluoro-4-trifluoromethyl-phenyl)-2-pyrrolidin-1-yl-ethyl]-amide], the IC50 in assay [2] came out at 409 nM.
